From PMC10745768, “Stereoselective Synthesis and Antiproliferative Activity of Steviol-Based Diterpene 1,3-Aminoalcohol Regioisomers” (Molecules, 2023)

Assays:
HeLa cells = experiment: MTT antiproliferative assay, HeLa; type: cell-based; conditions: Homo sapiens, 72 h; for inhibition at 10 µM / inhibition at 30 µM: read-out: Growth inhibition (%) ± SEM
How it was run: (§1)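 72 h exposure, 10 µM and 30 µM; MTT 4 h; formazan in DMSO, A545. IC50 by sigmoid fit. n = 2 independent runs × 5 wells.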

SiHa cells = experiment: MTT antiproliferative assay, SiHa; type: cell-based; conditions: Homo sapiens, 72 h; for inhibition at 10 µM / inhibition at 30 µM: read-out: Growth inhibition (%) ± SEM
How it was run: as §1

MCF-7 cells = experiment: MTT antiproliferative assay, MCF-7; type: cell-based; conditions: Homo sapiens, MCF7; for inhibition at 10 µM: MCF-7, 10 μM; for inhibition at 10 µM / inhibition at 30 µM: 72 h, read-out: Growth inhibition (%) ± SEM; for inhibition at 30 µM: MCF-7, 30 μM
How it was run: as §1

MDA-MB-231 cells = experiment: MTT antiproliferative assay, MDA-MB-231; type: cell-based; conditions: Homo sapiens; for inhibition at 10 µM: MDA-MB-231, 10 μM; for inhibition at 10 µM / inhibition at 30 µM: 72 h, read-out: Growth inhibition (%) ± SEM; for inhibition at 30 µM: MDA-MB-231, 30 μM
How it was run: as §1

A2780 cells = experiment: MTT antiproliferative assay, A2780; type: cell-based; conditions: Homo sapiens; for inhibition at 10 µM: A2780, 10 μM; for inhibition at 10 µM / inhibition at 30 µM: 72 h, read-out: Growth inhibition (%) ± SEM; for inhibition at 30 µM: A2780, 30 μM
How it was run: as §1

NIH/3T3 fibroblast cells = experiment: MTT assay on non-malignant fibroblasts (selectivity); type: cell-based, murine; conditions: Mus musculus, NIH3T3; for inhibition at 10 µM: NIH/3T3, 10 μM; for inhibition at 10 µM / inhibition at 30 µM: 72 h, read-out: Growth inhibition (%) ± SEM; for inhibition at 30 µM: NIH/3T3, 30 μM
How it was run: as §1

[1] = system: human cancer cell lines (HeLa, SiHa, MCF-7, MDA-MB-231, A2780); experiment: MTT antiproliferative assay, panel of malignant cells; type: cell-based; conditions: for antiproliferative action at higher concentration (in words): 30 μM
Protocol: The in vitro anticancer effects of the presented compounds were assessed using the standard MTT [3-(4,5-dimethylthiazol2-yl)-2,5-diphenyltetrazolium bromide] assay on the following human cancer cell lines: cervical (HeLa and SiHa), breast (MCF-7 and MDA-MB-231) and ovarian cancer (A2780). The selectivity of the tested compounds was determined on murine embryonal fibroblast cells (NIH/3T3). The utilised cell lines were purchased from the European Collection of Cell Cultures (Salisbury, UK). The cells were cultivated in Eagle’s minimal essential medium supplemented with 10% fetal bovine serum, 1% non-essential amino acids and 1% antibiotic-antimycotic complex (penicillin, streptomycin, amphotericin B) at 37 °C in a humidified atmosphere containing 5% CO2. All media and supplements were purchased from Lonza Group Ltd. (Basel, Switzerland). The cancer cells were seeded into 96-well plates (5000 cells/well) and incubated overnight, and the test compounds were applied in two different concentrations (10 µM and 30 µM) and incubated for another 72 h under cell-culturing conditions. […] After 72 h, 20 µL of the 5 mg/mL MTT solution was added to each well, and the plates were incubated for 4 h. The medium was removed, and the formazan crystals produced by the mitochondrial activity were dissolved in dimethyl sulfoxide (DMSO) via shaking at 37 °C for 30 min. The absorbances were measured at 545 nm using a microplate reader (SPECTROStar Nano, BMG Labtech, Offenburg, Germany). The reference agent was cisplatin, which is a widely used cytotoxic agent. The IC50 values were calculated using sigmoid curve fitting. Two independent experiments were performed with five parallel wells for each condition. Calculations were performed using the GraphPad Prism 9 software (GraphPad Software Inc., San Diego, CA, USA).

Row | Compound | inhibition at 10 µM (HeLa cells) | inhibition at 30 µM (HeLa cells) | inhibition at 10 µM (SiHa cells) | inhibition at 30 µM (SiHa cells) | inhibition at 10 µM (MCF-7 cells) | inhibition at 30 µM (MCF-7 cells) | inhibition at 10 µM (MDA-MB-231 cells) | inhibition at 30 µM (MDA-MB-231 cells) | inhibition at 10 µM (A2780 cells) | inhibition at 30 µM (A2780 cells) | inhibition at 10 µM (NIH/3T3 fibroblast cells) | inhibition at 30 µM (NIH/3T3 fibroblast cells) | antiproliferative action at higher concentration (in words) [1] | melting point | also measured
1 | COC(=O)[C@]1(C)CCC[C@@]2(C)[C@@H]3CC[C@@]4(CO)C[C@]3(CC[C@@H]21)C[C@H]4N [Compound 6, (4R,4aS,6aR,8R,9R,11aR,11bS)-Methyl 8-amino-9-(hydroxymethyl)-4,11b-dimethyltetradecahydro-6a,9-methanocyclohepta[a]naphthalene-4-carboxylate] | 23.2 ± 1.97% | 93.94 ± 0.55% | < 20% | 68.24 ± 0.61% | 36.4 ± 3.48% | 98.58 ± 0.22% | 25.8 ± 2.49% | 97.6 ± 0.67% | 24.8 ± 5.19% | 82.5 ± 4.66% | 22.1 ± 1.54% | 98.27 ± 0.37% | pronounced cell growth inhibition | 166 to 170 °C | 
2 | COC(=O)[C@]1(C)CCC[C@@]2(C)[C@@H]3CC[C@@]4(CO)C[C@]3(CC[C@@H]21)C[C@@H]4N [Compound 7, (4R,4aS,6aR,8S,9R,11aR,11bS)-Methyl 8-amino-9-(hydroxymethyl)-4,11b-dimethyltetradecahydro-6a,9-methanocyclohepta[a]naphthalene-4-carboxylate] | 24.9 ± 2.49% | 96.89 ± 0.54% | < 20% | 88.6 ± 2.01% | 43.1 ± 3.79% | 99.33 ± 0.24% | 28 ± 1.84% | 97.67 ± 0.67% | 27 ± 4.31% | 91.6 ± 1.97% | < 20% | 97.76 ± 0.7% | pronounced cell growth inhibition | 127 to 130 °C | 
3 | COC(=O)[C@]1(C)CCC[C@@]2(C)[C@@H]3CC[C@@]4(CO)C[C@]3(CC[C@@H]21)C[C@H]4N[C@@H](C)c1ccc2ccccc2c1 [Compound 16, (4R,4aS,6aR,8R,9R,11aR,11bS)-Methyl 9-(hydroxymethyl)-4,11b-dimethyl-8-(((S)-1-(naphthalen-2-yl)ethyl)amino)tetradecahydro-6a,9-methanocyclohepta[a]naphthalene-4-carboxylate] | 55.4 ± 2.81% | 95.7 ± 1.12% | 80 ± 1.41% | 89.4 ± 1.03% | 81 ± 2.03% | 97.95 ± 0.56% | 84.4 ± 2.92% | 93.6 ± 1.23% | 97.6 ± 2.81% | 100.3 ± 0.57% | < 20% | 96.83 ± 0.66% |  | 105 to 108 °C | IC50 (HeLa cells; read-out: calculated IC50): 3.4 µM; IC50 (SiHa cells; read-out: calculated IC50): 6.33 µM; IC50 (MCF-7 cells; MCF-7, 72 h, read-out: calculated IC50): 3.88 µM; IC50 (MDA-MB-231 cells; MDA-MB-231, 72 h, read-out: calculated IC50): 4.51 µM; IC50 (A2780 cells; A2780, 72 h, read-out: calculated IC50): 4.43 µM; IC50 (NIH/3T3 fibroblast cells; NIH/3T3, 72 h, read-out: calculated IC50): 17.4 µM; IC50 ([1]; Homo sapiens, range over the five cancer cell lines): 3.44 to 6.33 µM
4 | COC(=O)[C@]1(C)CCC[C@@]2(C)[C@@H]3CC[C@@]4(CN=[N+]=[N-])C[C@]3(CC[C@@H]21)CC4=O [Compound 19, (4R,4aS,6aR,9S,11aR,11bS)-Methyl 9-(azidomethyl)-4,11b-dimethyl-8-oxotetradecahydro-6a,9-methanocyclohepta[a]naphthalene-4-carboxylate] | 31.6 ± 1.34% | 46.86 ± 0.27% | < 20% | < 20% | < 20% | 38 ± 1.36% | < 20% | < 20% | < 20% | 41.7 ± 1.99% | < 20% | < 20% | no substantial action | 97 to 99 °C | 
5 | COC(=O)[C@]1(C)CCC[C@@]2(C)[C@@H]3CC[C@@]4(Cn5cc(Cc6ccccc6)nn5)C[C@]3(CC[C@@H]21)CC4=O [Compound 34, (4R,4aS,6aR,9S,11aR,11bS)-Methyl 9-((4-benzyl-1H-1,2,3-triazol-1-yl)methyl)-4,11b-dimethyl-8-oxotetradecahydro-6a,9-methanocyclohepta[a]naphthalene-4-carboxylate] | < 20% | 75.2 ± 1.26% | < 20% | 58.8 ± 2.24% | 37.5 ± 2.1% | 81.3 ± 2.02% | < 20% | 50.1 ± 2.41% | 31.8 ± 1.6% | 89.59 ± 0.45% | < 20% | 72.5 ± 0.96% |  | 172 to 176 °C | 
6 | COC(=O)[C@]1(C)CCC[C@@]2(C)[C@@H]3CC[C@@]4(Cn5cc(-c6ccccc6)nn5)C[C@]3(CC[C@@H]21)C[C@H]4O [Compound 35, (4R,4aS,6aR,8R,9S,11aR,11bS)-Methyl 8-hydroxy-4,11b-dimethyl-9-((4-phenyl-1H-1,2,3-triazol-1-yl)methyl)tetradecahydro-6a,9-methanocyclohepta[a]naphthalene-4-carboxylate] | < 20% | 88.11 ± 0.75% | < 20% | 81.4 ± 2.84% | 70 ± 3.11% | 88.79 ± 0.44% | < 20% | 92.44 ± 0.59% | 43.2 ± 1.63% | 97.37 ± 0.38% | 54.8 ± 1.4% | 93 ± 1.01% |  | 154 to 156 °C | 
7 | COC(=O)[C@]1(C)CCC[C@@]2(C)[C@@H]3CC[C@@]4(Cn5cc(Cc6ccccc6)nn5)C[C@]3(CC[C@@H]21)C[C@H]4O [Compound 36, (4R,4aS,6aR,8R,9S,11aR,11bS)-Methyl 9-((4-benzyl-1H-1,2,3-triazol-1-yl)methyl)-8-hydroxy-4,11b-dimethyltetradecahydro-6a,9-methanocyclohepta[a]naphthalene-4-carboxylate] | < 20% | 89.32 ± 0.63% | < 20% | 79.4 ± 3.17% | 45.9 ± 3.4% | 91.8 ± 0.74% | < 20% | 91.38 ± 0.65% | 29.3 ± 1.68% | 96.31 ± 0.53% | < 20% | 92.91 ± 0.87% |  | 112 to 114 °C | 
